Measured values: US20160186187A1, “REGULATABLE GENE EXPRESSION” (BIOSYNTIA APS, priority 2013, published 2016)
Entries after “also recorded” stand apart in the source; their conditions may differ.

How the values were obtained:
EcpGEBO5.1 [1] = experiment: Spontaneous resistance of EcpGEBO5.1 in single and dual antibiotic selection (plating); format: cell-based, Escherichia coli; settings: for Growth on antibiotic plate: LB agar, chloramphenicol 30 μg/mL and/or spectinomycin 80 μg/mL; for Colonies on single selection plates (in words): three plates each, 24 h of incubation
Description: pGEBO5.1 was transformed into E. coli Dh10B cells (forming EcpGEBO5.1) using standard methods known to the skilled person. To test whether the double selection system solved the problem of spontaneous resistance, plating of up to 1.3×10^8 EcpGEBO5.1 cells was performed in 10 replicates on LB agar media containing spectinomycin (80 μg/mL) and chloramphenicol (30 μg/mL) (‘dual selection’). As a control, plating on plates containing only chloramphenicol (30 μg/mL) or spectinomycin (80 μg/mL) (‘single selection’) was each performed in triplicate (See Table 1). Each plate was incubated for 72 hours. Of the 10 plates with dual selection no colonies were observed within the first 48 hours of incubation. […] Therefore, it appears that the probability of a single mutation to confer spontaneous resistance to one antibiotic is significant whereas the probability of a simultaneous double mutation to confer spontaneous resistance to both antibiotics is effectively nil.

EcpGEBO5.1 [2] = experiment: Growth response of EcpGEBO5.1 for xanthine alkaloids (plate selection assay); format: cell-based, Escherichia coli; settings: for Growth, Selection: ampicillin 50 μg/mL, spectinomycin 80 μg/mL, chloramphenicol 30 μg/mL; for Growth, No Selection: plates without spectinomycin and chloramphenicol
Description: The growth response of EcpGEBO5.1 for 4 different xanthine alkaloids was determined empirically using a selection assay with varying concentrations xanthine-based compounds: theophylline, xanthine, theobromine and caffeine.
Procedure: 300-400 colony forming units were plated on plates containing ampicillin (50 μg/mL), spectinomycin (80 μg/mL), chloramphenicol (30 μg/mL) and the indicated concentration of xanthine-based compound—see Table 2: Dissociation constants (KJ for the xanthines with the aptamer region (mCTC8-4 aptamer) previously determined (Jenison et al., 1994). No selection means plates without spectinomycin and chloramphenicol. (+) means growth was observed. (−) means no growth was observed. (˜) means reduced growth was observed.

mCTC8-4 aptamer = settings: previously determined (Jenison et al., 1994); cited from earlier work
EcpGEBO5.1 + pZE21 = experiment: Growth response to xanthine in M9 minimal medium, control strain; format: cell-based, Escherichia coli; settings: for OD600 of EcpGEBO5.1 + pZE21: selection (chloramphenicol 30 μg/ml, spectinomycin 80 μg/ml), 16 h
Description: (§1) In order to test the hypothesis, growth experiments with and without xanthine was performed. First, in order eliminate the putative contribution of any background mutation of the genome or of the pGEBO5.1 assay plasmid the library plasmid encoding the putative xanthine permease (pZE21_1H) from the AB95D01 soil metagenomic library was extracted and retransformed in strain EcpGEBO5.1. Instead of testing the strain in LB-medium, xanthine-free M9 minimal medium was used to test the effect of defined xanthine concentrations. Strain EcpGEBO5.1 transformed with the empty cloning vector pZE21 (EcpGEBO5.1+pZE21) was used as a control. Both strains were inoculated in 3 ml M9 minimal medium supplemented with kanamycin 50 μg/ml and ampicillin 50 μg/ml and grown overnight. The next day a new 3 ml culture was prepared under same conditions and inoculated by transferring 30 μl from the initial culture. At exponential phase (when the optical density at 600 nm (0D600) had reached ˜0.5) the culture was used to inoculate 200 μl M9 minimal selective media in a microtiterplate with varying concentrations of xanthine (Table below). Inoculums were diluted such that the initial OD600 of each culture was exactly 0.01. The microtiter plate was incubated at 37° C. in an ELx808 Absorbance Microtiterplate Reader from Biotek with shaking at 200 rpm. OD600 was measured after 16 h and the average and standard deviation was calculated from three biological replicates of each xanthine concentration. When grown in concentrations of xanthine ranging from 0 mM to 1 mM but no chloramphenicol or spectinomycin both strains were unaffected by the presence of xanthine. When applying selection (chloramphenicol 30 μg/ml and spectinomycin 80 μg/ml), growth was observed only for the strain harbouring the xanthine permease containing plasmid (pZE21_1H) and only when xanthine was added (Table 3). The experiment confirms the prediction that the DNA insert is encoding a xanthine permease protein, and that the increased xanthine uptake enables growth under selective conditions.

EcpGEBO5.1 + pZE21_1H = experiment: Growth response to xanthine in M9 minimal medium, xanthine permease strain; format: cell-based, Escherichia coli; settings: for OD600 of EcpGEBO5.1 + pZE21_1H: selection (chloramphenicol 30 μg/ml, spectinomycin 80 μg/ml), 16 h
Description: as §1

[3] = 1.3 × 10^6 CFU plated (1 ul), 24 h growth
[4] = 1.3 × 10^6 CFU plated (1 ul), 48 h growth
[5] = 1.3 × 10^6 CFU plated (1 ul), 72 h growth
[6] = 1.3 × 10^7 CFU plated (10 ul), 24 h growth
[7] = 1.3 × 10^7 CFU plated (10 ul), 48 h growth
[8] = 1.3 × 10^7 CFU plated (10 ul), 72 h growth
[9] = xanthine 0 mM to 1 mM, no chloramphenicol or spectinomycin

| Structure (SMILES) | Growth on antibiotic plate (EcpGEBO5.1 [1]; [3]) | Growth on antibiotic plate (EcpGEBO5.1 [1]; [4]) | Growth on antibiotic plate (EcpGEBO5.1 [1]; [5]) | Growth on antibiotic plate (EcpGEBO5.1 [1]; [6]) | Growth on antibiotic plate (EcpGEBO5.1 [1]; [7]) | Growth on antibiotic plate (EcpGEBO5.1 [1]; [8]) | Colonies on single selection plates (in words) (EcpGEBO5.1 [1]) | Growth, Selection (EcpGEBO5.1 [2]; 1 mM xanthine compound) | Growth, No Selection (EcpGEBO5.1 [2]; 1 mM xanthine compound) | Kd (mCTC8-4 aptamer) | other results |
| --- | --- | --- | --- | --- | --- | --- | --- | --- | --- | --- | --- |
| O=C(N[C@H](CO)[C@H](O)c1ccc([N+](=O)[O-])cc1)C(Cl)Cl [chloramphenicol] | − | + (‘+’ single colonies (1-1000)) | + (‘+’ single colonies (1-1000)) | + (‘+’ single colonies (1-1000)) | ++ | ++ | numerous colonies |  |  |  |  |
| CN[C@@H]1[C@H](O)[C@H](NC)[C@H]2O[C@@]3(O)C(=O)C[C@@H](C)O[C@H]3O[C@@H]2[C@H]1O [spectinomycin] | + (‘+’ single colonies (1-1000)) | ++ | ++ | + (‘+’ single colonies (1-1000)) | ++ | ++ | numerous colonies |  |  |  |  |
| Cn1cnc2c1c(=O)[nH]c(=O)n2C [Theobromine, theobromine] |  |  |  |  |  |  |  | − | + | > 500 µM |  |
| Cn1c(=O)c2[nH]cnc2n(C)c1=O [Theophylline, theophylline] |  |  |  |  |  |  |  |  |  | 0.32 ± 0.13 µM | Growth, No Selection (EcpGEBO5.1 [2]; 0.1 mM xanthine compound): +; Growth, Selection (EcpGEBO5.1 [2]; 2 mM xanthine compound): +; Growth, No Selection (EcpGEBO5.1 [2]; 2 mM xanthine compound): + |
| Cn1c(=O)c2c(ncn2C)n(C)c1=O [Caffeine, caffeine] |  |  |  |  |  |  |  |  |  | 3500 ± 1500 µM | Growth, Selection (EcpGEBO5.1 [2]; 3 mM xanthine compound): −; Growth, No Selection (EcpGEBO5.1 [2]; 3 mM xanthine compound): +; Growth, Selection (EcpGEBO5.1 [2]; 7 mM xanthine compound): − |
| O=c1[nH]c(=O)c2[nH]cnc2[nH]1 [Xanthine, xanthine] |  |  |  |  |  |  |  | − | + | 8.5 ± 0.4 µM | Effect of xanthine on growth without selection (EcpGEBO5.1 + pZE21; [9]): unaffected; OD600 of EcpGEBO5.1 + pZE21 (EcpGEBO5.1 + pZE21; xanthine 1.0 μM): 0.02 ± 0.00; OD600 of EcpGEBO5.1 + pZE21 (EcpGEBO5.1 + pZE21; xanthine 1.5 μM): 0.02 ± 0.00; OD600 of EcpGEBO5.1 + pZE21 (EcpGEBO5.1 + pZE21; xanthine 2.0 μM): 0.02 ± 0.00; OD600 of EcpGEBO5.1 + pZE21 (EcpGEBO5.1 + pZE21; xanthine 2.5 μM): 0.03 ± 0.00; OD600 of EcpGEBO5.1 + pZE21 (EcpGEBO5.1 + pZE21; xanthine 4.5 μM): 0.03 ± 0.00; OD600 of EcpGEBO5.1 + pZE21 (EcpGEBO5.1 + pZE21; xanthine 12.5 μM): 0.03 ± 0.01; Growth of EcpGEBO5.1 under selective conditions (in words) (EcpGEBO5.1 [2]; 1 mM xanthine in the growth medium): lack of growth; also recorded: did not enable growth; Effect of xanthine on growth without selection (EcpGEBO5.1 + pZE21_1H; [9]): unaffected; OD600 of EcpGEBO5.1 + pZE21_1H (EcpGEBO5.1 + pZE21_1H; xanthine 1.0 μM): 0.17 ± 0.01; OD600 of EcpGEBO5.1 + pZE21_1H (EcpGEBO5.1 + pZE21_1H; xanthine 1.5 μM): 0.29 ± 0.01; OD600 of EcpGEBO5.1 + pZE21_1H (EcpGEBO5.1 + pZE21_1H; xanthine 2.0 μM): 0.37 ± 0.00; OD600 of EcpGEBO5.1 + pZE21_1H (EcpGEBO5.1 + pZE21_1H; xanthine 2.5 μM): 0.42 ± 0.00; OD600 of EcpGEBO5.1 + pZE21_1H (EcpGEBO5.1 + pZE21_1H; xanthine 4.5 μM): 0.50 ± 0.01; OD600 of EcpGEBO5.1 + pZE21_1H (EcpGEBO5.1 + pZE21_1H; xanthine 12.5 μM): 0.51 ± 0.01 |
